What was measured:
[1] = Antinoradrenaline activity in isolated Wistar rat caudal artery assessed as dose required to decrease 20 to 50% of noradrenaline-induced effect per 6 mL/min after 15 mins; assay type: functional
Mus musculus [2] = test: Toxicity in ip dosed albino mouse assessed as dose required to increase 25% of dl-amphetamine sulfate-induced death; assay type: organism-based; settings: in vivo
Mus musculus [3] = test: Toxicity in albino mouse assessed as translatory movements at 10 mg/kg, ip relative to control; assay type: organism-based; parameters: dose 10 mg/kg, route intraperitoneal; settings: in vivo
Mus musculus [4] = test: Toxicity in ip dosed mouse assessed as sedative action; assay type: organism-based; settings: in vivo
[5] = Acute toxicity in ip dosed albino mouse measured within 24 hrs; assay type: organism-based; settings: in vivo
Ileum [6] = test: Antiacetylcholine activity in guinea pig ileum assessed as dose required to decrease 50 to 100% of acetylcholine-induced effect treated 5 mins before acetylcholine addition; assay type: functional, Cavia porcellus
Ileum [7] = test: Antihistamine activity in guinea pig ileum assessed as dose required to decrease 50 to 100% of histamine induced effect treated 5 mins before histamine addition; assay type: functional, Cavia porcellus
Mus musculus [8] = test: Anticonvulsant activity in ip dosed albino mouse assessed as dose causing >25% increase in maximal electroshock-induced maximal extensor seizure relative to untreated control; assay type: functional
Mus musculus [9] = test: Toxicity in ip dosed albino mouse assessed as barbiturate-induced sleep by measuring loss of righting reflex administered 45 mins before barbiturate challenge relative to control; assay type: organism-based; settings: in vivo, 0.75 h
[10] = Antitrypatamine activity in isolated Wistar rat caudal artery assessed as dose required to decrease 20 to 50% of […]-induced effect per 6 mL/min after 15 mins; assay type: functional
Mus musculus [11] = test: Toxicity in ip dosed albino mouse assessed as barbiturate-induced sleep by measuring loss of righting reflex relative to control; assay type: organism-based; settings: in vivo
Mus musculus [12] = test: Neurotoxicity in albino mouse at 10 mg/kg, po up to 5 mins by rotorod test relative to control; assay type: toxicity, organism-based; parameters: dose 10 mg/kg, route oral; settings: in vivo
Mus musculus [13] = test: Toxicity in albino mouse assessed as body-temperature variation at 10 mg/kg, ip measured 20 mins after dl-amphetamine sulfate injection dosed 30 mins before dl-amphetamine sulfate injection; assay type: organism-based; parameters: dose 10 mg/kg, route intraperitoneal; settings: in vivo
Mus musculus [14] = test: Toxicity in albino mouse assessed as translatory movements at 5 mg/kg, ip relative to control; assay type: organism-based; parameters: dose 5 mg/kg, route intraperitoneal; settings: in vivo
Mus musculus [15] = test: Neurotoxicity in albino mouse at 5 mg/kg, po up to 5 mins by rotorod test relative to control; assay type: toxicity, organism-based; parameters: dose 5 mg/kg, route oral; settings: in vivo
Mus musculus [16] = test: Toxicity in albino mouse assessed as body-temperature variation at 5 mg/kg, ip measured 20 mins after dl-amphetamine sulfate injection dosed 30 mins before dl-amphetamine sulfate injection; assay type: organism-based; parameters: dose 5 mg/kg, route intraperitoneal; settings: in vivo
Mus musculus [17] = test: Anticonvulsant activity in ip dosed albino mouse assessed as dose causing total prevention of maximal electroshock-induced maximal extensor seizure; assay type: functional

Compound: CN(C)CCN1CCN(c2ccccc2)c2ccccc2C1=O
- Activity [1]: 200 µg/min
- Activity (Mus musculus [2]): 10 mg/kg
- Activity (Mus musculus [3]): -30%
- Activity (Mus musculus [4]): Non-toxic
- LD50 at 24 h [5]: 100 mg/kg
- Activity (Ileum [6]): 100 µg/mL
- Activity (Ileum [7]): 50 µg/mL
- Activity (Mus musculus [8]): 50 mg/kg
- Activity (Mus musculus [9]): 15%
- Activity [10]: 50 µg/min
- Activity (Mus musculus [11]): 4%
- Activity (Mus musculus [12]): -6%
- temperature change (Mus musculus [13]): 0.6 °C

Compound: CN(C)CCCN1CCN(c2ccccc2)c2ccccc2C1=O
- Activity [1]: 160 µg/min
- Activity (Mus musculus [3]): -15%
- Activity (Mus musculus [4]): Non-toxic
- LD50 at 24 h [5]: 116 mg/kg
- Activity (Ileum [6]): 100 µg/mL
- Activity (Ileum [7]): 100 µg/mL
- Activity (Mus musculus [8]): 10 mg/kg
- Activity (Mus musculus [9]): 10%
- Activity [10]: 50 µg/min
- Activity (Mus musculus [11]): 35%
- Activity (Mus musculus [12]): -12%

Compound: CC(CN(C)C)N1CCN(c2ccccc2)c2ccccc2C1=O (configuration not stated)
- Activity [1]: 160 µg/min
- Activity (Mus musculus [3]): 4%
- Activity (Mus musculus [4]): Non-toxic
- LD50 at 24 h [5]: 130 mg/kg
- Activity (Ileum [6]): 50 µg/mL
- Activity (Ileum [7]): 50 µg/mL
- Activity (Mus musculus [8]): 12 mg/kg
- Activity (Mus musculus [9]): 12.5%
- Activity [10]: 50 µg/min
- Activity (Mus musculus [11]): 20%
- Activity (Mus musculus [12]): -25%

Compound: CCN(CC)CCN1CCN(c2ccccc2)c2ccccc2C1=O
- Activity [1]: 80 µg/min
- Activity (Mus musculus [3]): 1%
- Activity (Mus musculus [4]): Non-toxic
- LD50 at 24 h [5]: 75 mg/kg
- Activity (Ileum [6]): 100 µg/mL
- Activity (Ileum [7]): 100 µg/mL
- Activity (Mus musculus [8]): 5 mg/kg
- Activity (Mus musculus [9]): 10%
- Activity [10]: 50 µg/min
- Activity (Mus musculus [11]): 40%
- Activity (Mus musculus [12]): 11%

Compound: O=C1c2ccccc2N(c2ccccc2)CCN1CCN1CCCC1
- Activity [1]: 15 µg/min
- Activity (Mus musculus [3]): -10%
- Activity (Mus musculus [4]): Non-toxic
- LD50 at 24 h [5]: 80 mg/kg
- Activity (Ileum [6]): 100 µg/mL
- Activity (Ileum [7]): 50 µg/mL
- Activity (Mus musculus [9]): 20%
- Activity [10]: 50 µg/min
- Activity (Mus musculus [11]): 60%
- Activity (Mus musculus [12]): -32%
- temperature change (Mus musculus [13]): -0.2 °C

Compound: O=C1c2ccccc2N(c2ccccc2)CCN1CCN1CCCCC1
- Activity [1]: 25 µg/min
- Activity (Mus musculus [2]): 10 mg/kg
- Activity (Mus musculus [3]): -11%
- Activity (Mus musculus [4]): Non-toxic
- LD50 at 24 h [5]: 75 mg/kg
- Activity (Ileum [6]): 100 µg/mL
- Activity (Ileum [7]): 50 µg/mL
- Activity (Mus musculus [8]): 25 mg/kg
- Activity (Mus musculus [9]): 20%
- Activity [10]: 25 µg/min
- Activity (Mus musculus [11]): 45%
- Activity (Mus musculus [12]): -27%
- temperature change (Mus musculus [13]): 1.4 °C

Compound: C[N+](C)(C)CCN1CCN(c2ccccc2)c2ccccc2C1=O.[I-]
- Activity [1]: 50 µg/min
- Activity (Mus musculus [2]): 5 mg/kg
- Activity (Mus musculus [4]): Non-toxic
- Activity (Mus musculus [14]): 20%
- LD50 at 24 h [5]: 35 mg/kg
- Activity (Ileum [6]): 50 µg/mL
- Activity (Ileum [7]): 50 µg/mL
- Activity (Mus musculus [8]): 15 mg/kg
- Activity (Mus musculus [9]): 15%
- Activity (Mus musculus [15]): -21%
- temperature change (Mus musculus [16]): -0.3 °C
- Activity [10]: 50 µg/min
- Activity (Mus musculus [11]): -40%

Compound: C[N+](C)(C)CCCN1CCN(c2ccccc2)c2ccccc2C1=O.[I-]
- Activity [1]: 100 µg/min
- Activity (Mus musculus [2]): 5 mg/kg
- Activity (Mus musculus [4]): Non-toxic
- Activity (Mus musculus [14]): -5%
- LD50 at 24 h [5]: 50 mg/kg
- Activity (Ileum [6]): 50 µg/mL
- Activity (Ileum [7]): 50 µg/mL
- Activity (Mus musculus [8]): 10 mg/kg
- Activity (Mus musculus [9]): 10%
- Activity (Mus musculus [15]): 70%
- temperature change (Mus musculus [16]): 1.2 °C
- Activity [10]: 50 µg/min
- Activity (Mus musculus [11]): -25%

Compound: CC(C[N+](C)(C)C)N1CCN(c2ccccc2)c2ccccc2C1=O.[I-] (configuration not stated)
- Activity [1]: 50 µg/min
- Activity (Mus musculus [4]): Non-toxic
- Activity (Mus musculus [14]): 1%
- LD50 at 24 h [5]: 15 mg/kg
- Activity (Ileum [6]): 200 µg/mL
- Activity (Ileum [7]): 50 µg/mL
- Activity (Mus musculus [8]): 5 mg/kg
- Activity (Mus musculus [9]): 5%
- Activity (Mus musculus [15]): -7%
- temperature change (Mus musculus [16]): 0.3 °C
- Activity [10]: 15 µg/min
- Activity (Mus musculus [11]): -15%

Compound: CC[N+](C)(CC)CCN1CCN(c2ccccc2)c2ccccc2C1=O.[I-]
- Activity [1]: 50 µg/min
- Activity (Mus musculus [2]): 3 mg/kg
- Activity (Mus musculus [4]): Non-toxic
- Activity (Mus musculus [14]): -3%
- LD50 at 24 h [5]: 15 mg/kg
- Activity (Ileum [6]): 50 µg/mL
- Activity (Ileum [7]): 50 µg/mL
- Activity (Mus musculus [8]): 5 mg/kg
- Activity (Mus musculus [9]): 5%
- Activity (Mus musculus [15]): 20%
- temperature change (Mus musculus [16]): 1.4 °C
- Activity [10]: 15 µg/min
- Activity (Mus musculus [11]): -40%

Compound: C[N+]1(CCN2CCN(c3ccccc3)c3ccccc3C2=O)CCCC1.[I-]
- Activity [1]: 5 µg/min
- Activity (Mus musculus [2]): 3 mg/kg
- Activity (Mus musculus [4]): Non-toxic
- Activity (Mus musculus [14]): -8%
- LD50 at 24 h [5]: 10 mg/kg
- Activity (Ileum [6]): 100 µg/mL
- Activity (Ileum [7]): 50 µg/mL
- Activity (Mus musculus [8]): 3 mg/kg
- Activity (Mus musculus [9]): 5%
- temperature change (Mus musculus [16]): 1.6 °C
- Activity [10]: 50 µg/min
- Activity (Mus musculus [11]): 30%
- Activity (Mus musculus [12]): 11%

Compound: C[N+]1(CCN2CCN(c3ccccc3)c3ccccc3C2=O)CCCCC1.[I-]
- Activity [1]: 25 µg/min
- Activity (Mus musculus [4]): Non-toxic
- Activity (Mus musculus [14]): -20%
- LD50 at 24 h [5]: 15 mg/kg
- Activity (Ileum [6]): 50 µg/mL
- Activity (Ileum [7]): 200 µg/mL
- Activity (Mus musculus [9]): 3%
- temperature change (Mus musculus [16]): 0.9 °C
- Activity [10]: 50 µg/min
- Activity (Mus musculus [11]): 20%
- Activity (Mus musculus [12]): 8%

Compound: O=C1NCCN(c2ccc([N+](=O)[O-])cc2)c2ccc([N+](=O)[O-])cc21
- Activity (Mus musculus [3]): -21%
- Activity (Mus musculus [4]): Non-toxic
- LD50 at 24 h [5]: > 400 mg/kg
- Activity (Ileum [6]): 200 µg/mL
- Activity (Ileum [7]): 200 µg/mL
- Activity (Mus musculus [9]): 50%
- Activity (Mus musculus [11]): 40%
- Activity (Mus musculus [12]): -45%
- temperature change (Mus musculus [13]): 1 °C

Compound: Nc1ccc2c(c1)C(=O)NCCN2c1ccc([N+](=O)[O-])cc1
- Activity (Mus musculus [3]): -15%
- Activity (Mus musculus [4]): Non-toxic
- LD50 at 24 h [5]: > 400 mg/kg
- Activity (Ileum [6]): 50 µg/mL
- Activity (Ileum [7]): 200 µg/mL
- Activity (Mus musculus [9]): 50%
- Activity (Mus musculus [11]): 70%
- Activity (Mus musculus [12]): 39%
- temperature change (Mus musculus [13]): 1.2 °C

Compound: Nc1ccc(N2CCNC(=O)c3ccccc32)cc1
- Activity (Mus musculus [3]): 2%
- Activity (Mus musculus [4]): Non-toxic
- LD50 at 24 h [5]: > 400 mg/kg
- Activity (Ileum [6]): 200 µg/mL
- Activity (Ileum [7]): 200 µg/mL
- Activity (Mus musculus [9]): 50%
- Activity (Mus musculus [11]): 90%
- Activity (Mus musculus [12]): -20%
- temperature change (Mus musculus [13]): 1.4 °C

Compound: CN1C(=O)CN=C(c2ccccc2)c2cc(Cl)ccc21 [DIAZEPAM]
- Activity (Mus musculus [17]): 50 mg/kg
- Activity (Mus musculus [3]): -50%
- Activity (Mus musculus [4]): Non-toxic
- Activity (Ileum [7]): 4 µg/mL
- Activity (Mus musculus [12]): -40%
